Earlier results, collected in article PMC12154426, “TPP-Based Nanovesicles Kill MDR Neuroblastoma Cells and Induce Moderate ROS Increase, While Exerting Low Toxicity Towards Primary Cell Cultures: An In Vitro Study” (International Journal of Molecular Sciences, 2025).
pIC50: −log10 of the molar value. Like-named read-outs stand apart in the source and are kept apart here.

Legend:
[1] = parameters: method as in PMID 36084362; conditions: MFC-7, 24 h exposure, cited from earlier work
Hela = test system: Hela; parameters: method as in PMID 36084362; conditions: 24 h exposure, cited from earlier work
A-375 cancer cells = test system: A-375 cancer cells; parameters: method as in PMID 28151482; conditions: 24 h exposure; 30 µM vemurafenib, 50 µM TRAM-34, or their combination; cited from earlier work

Row | Compound | pIC50 ([1]; PDT/SDT) | pIC50 ([1]; PDT) | pIC50 ([1]; SDT) | pIC50 (Hela; PDT/SDT) | pIC50 (Hela; PDT) | pIC50 (Hela; SDT) | ROS increase with respect to the control (A-375 cancer cells)
1 | 2,9,16,23-tetrakis(N-(N-butyl-4-triphenyl-phosphonium)-pyridine-4-yloxy) Zn(II) Pc [compound 3] | 4.88 | 4.36 | 4.74 | 4.90 | 4.66 | 4.84 | 
2 | 2,9,16,23-tetrakis-(N-(N-butyl-4-triphenyl-phosphonium)-morpholino) Zn(II) Pc [compound 4] | 4.81 | 4.35 | 4.69 | 4.84 | 4.59 | 4.76 | 
3 | Clc1ccccc1C(c1ccccc1)(c1ccccc1)n1cccn1 [TRAM-34] |  |  |  |  |  |  | ~30%
4 | CCCS(=O)(=O)Nc1ccc(F)c(C(=O)c2c[nH]c3ncc(-c4ccc(Cl)cc4)cc23)c1F [vemurafenib] |  |  |  |  |  |  | about 38%
